{"source": "BigSolDB 2.1", "data": [{"molecule": "CCC[C@H](N)C(=O)O", "values": [{"measurement": "solubility (mole fraction)", "setting": "in acetone, 298.15 K", "result": 0.000515}, {"measurement": "solubility (mole fraction)", "setting": "in acetone, 303.15 K", "result": 0.000664}, {"measurement": "solubility (mole fraction)", "setting": "in acetone, 308.15 K", "result": 0.000828}, {"measurement": "solubility (mole fraction)", "setting": "in acetone, 313.15 K", "result": 0.00106}, {"measurement": "solubility (mole fraction)", "setting": "in acetone, 318.15 K", "result": 0.00135}, {"measurement": "solubility (mole fraction)", "setting": "in acetone, 323.15 K", "result": 0.00161}, {"measurement": "solubility (mole fraction)", "setting": "in acetonitrile, 298.15 K", "result": "5.93e-05"}, {"measurement": "solubility (mole fraction)", "setting": "in acetonitrile, 303.15 K", "result": "6.88e-05"}, {"measurement": "solubility (mole fraction)", "setting": "in acetonitrile, 308.15 K", "result": "7.54e-05"}, {"measurement": "solubility (mole fraction)", "setting": "in acetonitrile, 313.15 K", "result": "8.02e-05"}, {"measurement": "solubility (mole fraction)", "setting": "in acetonitrile, 318.15 K", "result": "8.53e-05"}, {"measurement": "solubility (mole fraction)", "setting": "in acetonitrile, 323.15 K", "result": "9.69e-05"}, {"measurement": "solubility (mole fraction)", "setting": "in ethanol, 298.15 K", "result": 0.000171}, {"measurement": "solubility (mole fraction)", "setting": "in ethanol, 303.15 K", "result": 0.000186}, {"measurement": "solubility (mole fraction)", "setting": "in ethanol, 308.15 K", "result": 0.000201}, {"measurement": "solubility (mole fraction)", "setting": "in ethanol, 313.15 K", "result": 0.000227}, {"measurement": "solubility (mole fraction)", "setting": "in ethanol, 318.15 K", "result": 0.000244}, {"measurement": "solubility (mole fraction)", "setting": "in ethanol, 323.15 K", "result": 0.000283}, {"measurement": "solubility (mole fraction)", "setting": "in ethyl acetate, 298.15 K", "result": 0.000253}, {"measurement": "solubility (mole fraction)", "setting": "in ethyl acetate, 303.15 K", "result": 0.000301}, {"measurement": "solubility (mole fraction)", "setting": "in ethyl acetate, 308.15 K", "result": 0.000349}, {"measurement": "solubility (mole fraction)", "setting": "in ethyl acetate, 313.15 K", "result": 0.000449}, {"measurement": "solubility (mole fraction)", "setting": "in ethyl acetate, 318.15 K", "result": 0.0005}, {"measurement": "solubility (mole fraction)", "setting": "in ethyl acetate, 323.15 K", "result": 0.00056}, {"measurement": "solubility (mole fraction)", "setting": "in isopentanol, 298.15 K", "result": 0.000726}, {"measurement": "solubility (mole fraction)", "setting": "in isopentanol, 303.15 K", "result": 0.000875}, {"measurement": "solubility (mole fraction)", "setting": "in isopentanol, 308.15 K", "result": 0.00103}, {"measurement": "solubility (mole fraction)", "setting": "in isopentanol, 313.15 K", "result": 0.00122}, {"measurement": "solubility (mole fraction)", "setting": "in isopentanol, 318.15 K", "result": 0.00151}, {"measurement": "solubility (mole fraction)", "setting": "in isopentanol, 323.15 K", "result": 0.00183}, {"measurement": "solubility (mole fraction)", "setting": "in isopropanol, 298.15 K", "result": 0.00119}, {"measurement": "solubility (mole fraction)", "setting": "in isopropanol, 303.15 K", "result": 0.0015}, {"measurement": "solubility (mole fraction)", "setting": "in isopropanol, 308.15 K", "result": 0.00173}, {"measurement": "solubility (mole fraction)", "setting": "in isopropanol, 313.15 K", "result": 0.00192}, {"measurement": "solubility (mole fraction)", "setting": "in isopropanol, 318.15 K", "result": 0.00215}, {"measurement": "solubility (mole fraction)", "setting": "in isopropanol, 323.15 K", "result": 0.00249}, {"measurement": "solubility (mole fraction)", "setting": "in methanol, 298.15 K", "result": 0.00104}, {"measurement": "solubility (mole fraction)", "setting": "in methanol, 303.15 K", "result": 0.00109}, {"measurement": "solubility (mole fraction)", "setting": "in methanol, 308.15 K", "result": 0.00113}, {"measurement": "solubility (mole fraction)", "setting": "in methanol, 313.15 K", "result": 0.0012}, {"measurement": "solubility (mole fraction)", "setting": "in methanol, 318.15 K", "result": 0.00126}, {"measurement": "solubility (mole fraction)", "setting": "in methanol, 323.15 K", "result": 0.00129}, {"measurement": "solubility (mole fraction)", "setting": "in methyl acetate, 298.15 K", "result": "7.37e-05"}, {"measurement": "solubility (mole fraction)", "setting": "in methyl acetate, 303.15 K", "result": "9.03e-05"}, {"measurement": "solubility (mole fraction)", "setting": "in methyl acetate, 308.15 K", "result": 0.00012}, {"measurement": "solubility (mole fraction)", "setting": "in methyl acetate, 313.15 K", "result": 0.00015}, {"measurement": "solubility (mole fraction)", "setting": "in methyl acetate, 318.15 K", "result": 0.000176}, {"measurement": "solubility (mole fraction)", "setting": "in methyl acetate, 323.15 K", "result": 0.000216}, {"measurement": "solubility (mole fraction)", "setting": "in n-butanol, 298.15 K", "result": 0.000962}, {"measurement": "solubility (mole fraction)", "setting": "in n-butanol, 303.15 K", "result": 0.00122}, {"measurement": "solubility (mole fraction)", "setting": "in n-butanol, 308.15 K", "result": 0.0014}, {"measurement": "solubility (mole fraction)", "setting": "in n-butanol, 313.15 K", "result": 0.00157}, {"measurement": "solubility (mole fraction)", "setting": "in n-butanol, 318.15 K", "result": 0.00175}, {"measurement": "solubility (mole fraction)", "setting": "in n-butanol, 323.15 K", "result": 0.0019}, {"measurement": "solubility (mole fraction)", "setting": "in n-pentanol, 298.15 K", "result": 0.000508}, {"measurement": "solubility (mole fraction)", "setting": "in n-pentanol, 303.15 K", "result": 0.000567}, {"measurement": "solubility (mole fraction)", "setting": "in n-pentanol, 308.15 K", "result": 0.000639}, {"measurement": "solubility (mole fraction)", "setting": "in n-pentanol, 313.15 K", "result": 0.000744}, {"measurement": "solubility (mole fraction)", "setting": "in n-pentanol, 318.15 K", "result": 0.000818}, {"measurement": "solubility (mole fraction)", "setting": "in n-pentanol, 323.15 K", "result": 0.000872}, {"measurement": "solubility (mole fraction)", "setting": "in n-propanol, 298.15 K", "result": 0.000859}, {"measurement": "solubility (mole fraction)", "setting": "in n-propanol, 303.15 K", "result": 0.00115}, {"measurement": "solubility (mole fraction)", "setting": "in n-propanol, 308.15 K", "result": 0.0015}, {"measurement": "solubility (mole fraction)", "setting": "in n-propanol, 313.15 K", "result": 0.00189}, {"measurement": "solubility (mole fraction)", "setting": "in n-propanol, 318.15 K", "result": 0.00231}, {"measurement": "solubility (mole fraction)", "setting": "in n-propanol, 323.15 K", "result": 0.00278}, {"measurement": "solubility (mole fraction)", "setting": "in water, 298.15 K", "result": 0.0135}, {"measurement": "solubility (mole fraction)", "setting": "in water, 303.15 K", "result": 0.0136}, {"measurement": "solubility (mole fraction)", "setting": "in water, 308.15 K", "result": 0.0137}, {"measurement": "solubility (mole fraction)", "setting": "in water, 313.15 K", "result": 0.0138}, {"measurement": "solubility (mole fraction)", "setting": "in water, 318.15 K", "result": 0.0139}, {"measurement": "solubility (mole fraction)", "setting": "in water, 323.15 K", "result": 0.0141}]}]}
